These results are taken from PMC6445195, “Synthesis and biological evaluation of aminomethyl and alkoxymethyl derivatives as carbonic anhydrase, acetylcholinesterase and butyrylcholinesterase inhibitors” (Journal of Enzyme Inhibition and Medicinal Chemistry, 2017).

Several values for one entry are separate records, joined by “and”; a condition that tells them apart may be missing. Identical values can stand only once. Like-named read-outs stand apart in the source and are kept apart here.

Assay in all cases: biochemical
Holding throughout (format): biochemical

The target of one assay is T1, hCA I (Homo sapiens, UniProt P00915).
T1 construct: from tissue; host or cells: fresh human erythrocytes
T1 sequence (P00915 whole entry): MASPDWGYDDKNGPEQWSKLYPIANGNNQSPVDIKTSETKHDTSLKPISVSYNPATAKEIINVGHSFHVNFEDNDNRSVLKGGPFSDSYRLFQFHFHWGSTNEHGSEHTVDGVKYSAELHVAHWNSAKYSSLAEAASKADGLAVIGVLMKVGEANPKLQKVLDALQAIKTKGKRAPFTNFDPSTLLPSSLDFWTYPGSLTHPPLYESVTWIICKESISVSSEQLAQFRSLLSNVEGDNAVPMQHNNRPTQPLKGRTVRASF
On the procedure:
(§1) CA activity was determined using the previously described spectrophotometric procedure of Verpoorte et al. as explained previously.[21] ^, [57] ^, [58] […] The quantity of protein was measured according to the previously described by Bradford method.[61–64] and bovine serum albumin was used as the standard.[65] ^, [66] After the purification method of the CA isoforms, samples were subjected to SDS polyacrylamide gel electrophoresis (SDS-PAGE).[67–69] […] The IC50 values were calculated from activity (%) against compounds inhibition.[72–74] Three various concentrations were used to calculate Ki values.[75–77]

The target of the next assay is T2, hCA II (Homo sapiens, UniProt P00918).
T2 construct: from tissue; host or cells: fresh human erythrocytes
How it is done: as §1

For another assay, the target named is AChE (Homo sapiens, UniProt P22303). To be noted: for AChE/BChE (proportion of AChE to BChE, selectivity): ratio of Ki AChE to Ki BChE. How it is done:
(§2) Acetylthiocholine iodide (AChI) and butyrylthiocholine iodide (BChI) were used as substrates for the reaction. 5,5′-Dithio-bis(2-nitro-benzoic)acid (DTNB) was used for the measurement of the AChE/BChE activities. Briefly, 1.0 ml of Tris/HCl buffer (1.0 M, pH 8.0), and 10 µL of sample solution were dissolved in deionized water at different concentrations and 50 µL AChE/BChE solution were mixed and incubated for 10 min at 25 °C. Next 50 µL of DTNB (0.5 mM) was added. The reaction was then initiated by the addition of 50 µL of AChI or BChI.

The target of a further assay is BChE (Homo sapiens, UniProt P06276). On the procedure: as §2
Chain of BChE (P06276 29-602): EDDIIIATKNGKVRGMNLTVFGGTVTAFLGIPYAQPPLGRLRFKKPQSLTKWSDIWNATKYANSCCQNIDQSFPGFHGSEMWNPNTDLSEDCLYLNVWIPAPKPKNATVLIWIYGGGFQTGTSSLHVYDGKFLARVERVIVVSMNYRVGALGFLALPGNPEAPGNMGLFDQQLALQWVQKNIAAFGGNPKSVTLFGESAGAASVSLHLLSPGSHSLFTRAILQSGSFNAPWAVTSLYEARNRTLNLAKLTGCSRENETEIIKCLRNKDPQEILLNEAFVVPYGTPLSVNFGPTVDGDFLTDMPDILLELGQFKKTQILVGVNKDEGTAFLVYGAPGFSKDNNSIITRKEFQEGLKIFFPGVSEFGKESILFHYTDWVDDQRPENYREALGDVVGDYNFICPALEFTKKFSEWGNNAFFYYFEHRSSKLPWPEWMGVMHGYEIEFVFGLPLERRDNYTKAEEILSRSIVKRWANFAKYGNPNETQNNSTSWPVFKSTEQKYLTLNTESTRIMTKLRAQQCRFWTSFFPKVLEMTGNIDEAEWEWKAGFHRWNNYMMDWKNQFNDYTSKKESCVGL
[1] abbreviates: purified from human erythrocytes, PNA substrate, 22 °C, read-out: IC50 hCA I.
[2] abbreviates: three concentrations used, read-out: Ki hCA I.
[3] abbreviates: purified from human erythrocytes, PNA substrate, 22 °C, read-out: IC50 hCA II.
Setting [4] is: three concentrations used, read-out: Ki hCA II.
[5] abbreviates: Ellman, Tris/HCl pH 8.0, 25 °C, read-out: IC50 AChE.
Where [6] appears, read: Ellman, Tris/HCl pH 8.0, 25 °C, read-out: IC50 BChE.

Chain of AChE (P22303 32-614): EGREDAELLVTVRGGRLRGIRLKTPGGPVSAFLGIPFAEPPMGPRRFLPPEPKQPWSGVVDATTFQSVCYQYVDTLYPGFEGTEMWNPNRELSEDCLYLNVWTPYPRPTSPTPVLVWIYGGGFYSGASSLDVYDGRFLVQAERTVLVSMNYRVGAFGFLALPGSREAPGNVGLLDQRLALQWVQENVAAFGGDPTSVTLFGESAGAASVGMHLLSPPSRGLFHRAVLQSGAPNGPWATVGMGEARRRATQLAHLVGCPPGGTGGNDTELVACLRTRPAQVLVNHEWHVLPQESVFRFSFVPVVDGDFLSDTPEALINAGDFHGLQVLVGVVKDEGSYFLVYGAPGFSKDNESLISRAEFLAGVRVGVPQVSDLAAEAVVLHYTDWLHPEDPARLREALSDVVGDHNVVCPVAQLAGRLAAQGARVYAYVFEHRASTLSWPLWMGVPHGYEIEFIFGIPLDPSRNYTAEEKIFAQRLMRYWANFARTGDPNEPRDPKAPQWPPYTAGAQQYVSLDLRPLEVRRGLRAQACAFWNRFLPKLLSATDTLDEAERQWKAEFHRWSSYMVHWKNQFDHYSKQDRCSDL

The IC50 is the midpoint of a concentration-inhibition curve. A word on the Ki: it is the equilibrium dissociation constant of an inhibitor or competing ligand from its target. Regarding `S=c1sc2ccccc2n1CN1CCOCC1` [Compound 1, N-oxazinomethylbenzothiazoline-2-thione], the IC50 at hCA I (setting [1]) came out at 79 nM; on hCA II (setting [3]), 104 nM; at AChE (setting [5]), 51 nM; on BChE (setting [6]) it was 88 nM. The Ki at hCA I (setting [2]) turned out to be 108 ± 35 nM; on hCA II (setting [4]), 81 ± 19 nM; on AChE (read-out: Ki AChE) it was 26 ± 5 nM; at BChE (read-out: Ki BChE), 32 ± 7 nM. The “AChE/BChE (proportion of AChE to BChE, selectivity)” value on AChE came to 0.812.
Take `S=c1sc2ccccc2n1CN1CCCCC1` [Compound 4, N-Piperidinomethylbenzothiazoline-2-thione]: the half-maximal inhibitory concentration (IC50) was found to be 86 nM at hCA I (setting [1]), 99 nM on hCA II (setting [3]), 36 nM at AChE (setting [5]) and 82 nM on BChE. Also, the Ki on hCA I (setting [2]) was 86 ± 40 nM; on hCA II (setting [4]), 105 ± 25 nM; at AChE (read-out: Ki AChE), 18 ± 2 nM; on BChE, 41 ± 13 nM. At AChE, the “AChE/BChE (proportion of AChE to BChE, selectivity)” value is 0.439.
Turning to `CCN(CC)Cn1c(=S)sc2ccccc21` [Compound 5, N-diethylaminomethylbenzothiazoline-2-thione], the IC50 on hCA I amounted to 82 nM; on hCA II, 98 nM; on AChE, 52 nM; on BChE, 83 nM. The Ki on hCA I came to 70 ± 15 nM; at hCA II, 100 ± 24 nM; at AChE it was 34 ± 9 nM; at BChE, 51 ± 9 nM. The “AChE/BChE (proportion of AChE to BChE, selectivity)” value at AChE amounted to 0.666.
On to `CCN(CC)Cn1c(=S)oc2ccccc21` [Compound 6, N-diethylaminomethylbenzoxazoline-2-thione], for which the IC50 at hCA I (setting [1]) is 102 nM; at hCA II (setting [3]) it was 118 nM; at AChE (setting [5]) it was 44 nM; on BChE it was 80 nM. In addition, the inhibition constant (Ki) at hCA I (setting [2]) was 123 ± 48 nM; at hCA II (setting [4]), 115 ± 28 nM; at AChE (read-out: Ki AChE) it was 45 ± 11 nM; on BChE, 30 ± 3 nM. Moreover, the “AChE/BChE (proportion of AChE to BChE, selectivity)” value on AChE is given as 1.500.
Regarding `S=c1oc2ccccc2n1CN1CCOCC1` [Compound 8, N-morfolinomethylbenzoxazoline-2-thion], the IC50 was determined as 94 nM at hCA I (setting [1]), 119 nM on hCA II (setting [3]), 38 nM at AChE (setting [5]) and 48 nM on BChE (setting [6]). In addition, the Ki came to 58 ± 15 nM at hCA I (setting [2]), 121 ± 40 nM on hCA II (setting [4]), 32 ± 6 nM at AChE (read-out: Ki AChE) and 23 ± 3 nM on BChE (read-out: Ki BChE). Moreover, the “AChE/BChE (proportion of AChE to BChE, selectivity)” value at AChE came out at 1.391.
`S=c1oc2ccccc2n1CN1CCOC1` [Compound 9, N-oxazolidinomethylbenzoxazoline-2-thione]: the IC50 on hCA I (setting [1]) is 103 nM; on hCA II (setting [3]) it was 121 nM; on AChE (setting [5]) it was 62 nM; on BChE (setting [6]), 84 nM. In addition, the Ki at hCA I (setting [2]) worked out at 76 ± 20 nM; on hCA II (setting [4]) it was 135 ± 33 nM; at AChE (read-out: Ki AChE), 78 ± 36 nM; on BChE (read-out: Ki BChE) it was 80 ± 9 nM. Besides, on AChE, the “AChE/BChE (proportion of AChE to BChE, selectivity)” value is 0.975.
In the case of `CC(C)OCn1c(=S)oc2ccccc21` [Compound 13, N-isopropoxymethylbenzoxazoline-2-thione], the IC50 stood at 105 nM on hCA I (setting [1]), 122 nM on hCA II (setting [3]), 63 nM on AChE (setting [5]) and 83 nM against BChE. For the same compound, the Ki on hCA I (setting [2]) stood at 90 ± 23 nM; at hCA II (setting [4]) it was 94 ± 37 nM; at AChE (read-out: Ki AChE), 34 ± 5 nM; on BChE, 35 ± 4 nM. Further, at AChE, the “AChE/BChE (proportion of AChE to BChE, selectivity)” value worked out at 0.971.
As for `COCCOCn1c(=S)oc2ccccc21` [Compound 14, N-(methoxyethoxy)methyl-benzoxazoline-2-thione], the IC50 at hCA I (setting [1]) was 112 nM; at hCA II (setting [3]), 128 nM; on AChE (setting [5]), 38 nM; on BChE it was 68 nM. The Ki on hCA I (setting [2]) came out at 119 ± 53 nM; at hCA II (setting [4]), 142 ± 56 nM; on AChE (read-out: Ki AChE), 23 ± 4 nM; on BChE, 60 ± 13 nM. The “fold of inhibitory activity against AChE/BChE than that of TAC” value at AChE (AChE/BChE selectivity relative to TAC) was 2.22 fold. Moreover, the “AChE/BChE (proportion of AChE to BChE, selectivity)” value at AChE is 0.388 and 0.383.
For the compound `COCCOCNc1nccs1` [Compound 15, 2-(methoxyethoxy) methylaminothiazole], the half-maximal inhibitory concentration (IC50) on hCA I (setting [1]) amounted to 128 nM; on hCA II (setting [3]), 158 nM; at AChE (setting [5]), 43 nM; at BChE (setting [6]), 109 nM. Further, the Ki at hCA I (setting [2]) was 118 ± 27 nM; at hCA II (setting [4]), 193 ± 79 nM; at AChE (read-out: Ki AChE), 25 ± 3 nM; on BChE (read-out: Ki BChE), 45 ± 14 nM. Moreover, the “AChE/BChE (proportion of AChE to BChE, selectivity)” value on AChE is listed as 0.555.
For `CC(C)OCNc1nccs1` [Compound 16, 2-isopropoxymethylaminothiazole], the IC50 was determined as 156 nM at hCA I (setting [1]), 167 nM on hCA II (setting [3]), 76 nM at AChE (setting [5]) and 127 nM at BChE. The Ki stood at 132 ± 30 nM at hCA I (setting [2]), 162 ± 29 nM at hCA II (setting [4]), 42 ± 4 nM on AChE (read-out: Ki AChE) and 55 ± 12 nM at BChE. In addition, the “AChE/BChE (proportion of AChE to BChE, selectivity)” value on AChE came out at 0.763.
As for `COCNc1nccs1` [Compound 17, 2-(methoxy)methylaminothiazole], the IC50 on hCA I (setting [1]) amounted to 142 nM; at hCA II (setting [3]), 187 nM; on AChE (setting [5]), 80 nM; on BChE it was 144 nM. The Ki on hCA I (setting [2]) was determined as 157 ± 38 nM; at hCA II (setting [4]), 215 ± 40 nM; on AChE (read-out: Ki AChE), 54 ± 10 nM; at BChE, 42 ± 20 nM. Further, the “AChE/BChE (proportion of AChE to BChE, selectivity)” value on AChE is on record as 1.285.
